In US4681884A, “Diazine-ethenylphenyl oxamic acids and esters and salts thereof” (Boehringer Ingelheim Pharmaceuticals, Inc., priority 1985, dated 1987):
Where a name gives a salt, the structure may show the parent alone.

Tested on: not given
Assay: not given
Details: given orally; cited from earlier work

Which “antiallergic activity when given orally” value does the source give for `O=C(O)c1cc(=O)c2c(OCC(O)COc3cccc4oc(C(=O)O)cc(=O)c34)cccc2o1` [Cromoglycate] here?
Its value is “not active”.

Same assay, conditions: inhalation as a solid; cited from earlier work

For `O=C(O)c1cc(=O)c2c(OCC(O)COc3cccc4oc(C(=O)O)cc(=O)c34)cccc2o1` [Cromoglycate], which “bronchodilator when given by inhalation as a solid” value is on record?
Its value is “effective”.

Tested on: Passive Cutaneous Anaphylaxis
Assay: Passive Cutaneous Anaphylaxis (PCA) Assay, in vivo anti-allergic activity
Design: species or system rat
Details: 10 mg/kg, p.o.; oral administration 30 minutes before ovalbumin challenge; blued area vs control
Protocol: Passive Cutaneous Anaphylaxis (PCA) Assay
Representative compounds of the present invention were tested comparatively with cromoglycate to determine in vivo anti-allergic activity. The anti-allergic properties were ascertained in rats by the Passive Cutaneous Anaphylaxis test (PCA) essentially as described by Goose and Blair, Immunology, 16: 749-760 (1969).
Rat serum was diluted so that skin reactions with diameters between 10 and 15 mm in unsensitized rats were produced. The PCA test was performed in duplicate by injecting 0.1 ml of this antiserum dilution on each side of the shaved back of rats. Rats so treated were injected intravenously (i.v.) twenty-four hours later with 0.02 mg ovalbumin in 0.5 ml of 1% Evans Blue solution within five minutes after intravenous administration or 30 minutes after oral administration of the test compounds. Thirty minutes after the ovalbumin challenge the rats were killed by CO2 -asphyxiation, and the skin was reflected. The diameters, in millimeters, of the blued areas were measured and the mean diameter was determined. The circular area was calculated, and the mean area in square millimeters of the control group was considered as 100%. The results of the compound test groups were expressed as a percentage change from these control values. From dose response curves the dose reducing the size of the blued area by 50% (ED50) was estimated.

For `CCOC(=O)C(=O)Nc1cc(C=Cc2ccc(Cl)nn2)cc(NC(=O)C(=O)OCC)c1Cl` [Example 37, Diethyl 2-(6-chloropyridazin-3-yl)ethenyl (4-chlorophenyl)-3,5dioxamate], which “% Inhibition” value is on record?
Its value is 54%.

Same assay, conditions: 10 mg/kg, p.o.; repeat test

For `O=C(O)C(=O)Nc1cccc(C=Cc2ccnc(NC(=O)C(=O)O)n2)c1` [Example 29, 2-(2-Carboxycarbonylamino-pyrimidin-4-yl)ethenyl-phenyl-3 oxamic acid tetra-sodium salt di-hydrate], which “% Inhibition (repeat)” value is on record?
Its value is 2%.

Same assay, conditions: Rattus norvegicus, 0.5 h; 3 mg/kg, i.v.; ovalbumin challenge within five minutes after intravenous administration

For `O=C(O)C(=O)Nc1ccc(C=Cc2ccncn2)cc1` [Example 2, 2-(4-Pyrimidinyl)ethenylphenyl-4 oxamic acid ethanolamine salt], which inhibition in vivo at 3 mg/kg is on record?
Its inhibition in vivo at 3 mg/kg is 63%.

Same assay, conditions: Rattus norvegicus, 0.5 h; 10 mg/kg, p.o.; oral administration 30 minutes before ovalbumin challenge; blued area vs control

With `CCOC(=O)C(=O)Nc1cccc(C=Cc2cc(NC(=O)C(=O)OCC)nc(C)n2)c1` [Example 26, Ethyl 2-(2-methyl-6-ethoxyoxalyl-aminopyrimidin-4-yl)-ethenylphenyl-3 oxamate hemihydrate] as the compound, how does the inhibition in vivo at 10 mg/kg read?
Its inhibition in vivo at 10 mg/kg is 64%.

Which inhibition in vivo at 10 mg/kg does the source give for `CCOC(=O)C(=O)Nc1ccc(C=Cc2nccnc2CC)cc1` [Example 30, Ethyl 2-(3-ethylpyrazin-2-yl)ethenylphenyl-4 oxamate] here?
The inhibition in vivo at 10 mg/kg was 6%.

Which inhibition in vivo at 10 mg/kg does the source give for `CCOC(=O)C(=O)Nc1ccccc1C=Cc1ccncn1` [Example 6, Ethyl 2-(4-pyrimidinyl)ethenylphenyl-2 oxamate] here?
The inhibition in vivo at 10 mg/kg was 20%.

For `CCOCCOC(=O)C(=O)Nc1ccc(C=Cc2cc(N)nc(C)n2)cc1` [Example 33, Ethoxyethyl 2-(2-methyl-6-aminopyrimidin-4-yl)-ethenylphenyl-4 oxamate hemihydrate], which inhibition in vivo at 10 mg/kg is on record?
Its inhibition in vivo at 10 mg/kg is 52%.

Which inhibition in vivo at 10 mg/kg does the source give for `CCOC(=O)C(=O)Nc1cc(C=Cc2ccncn2)ccc1OCCN(C)C` [Example 11, Ethyl 2-(4-pyrimidinyl)ethenyl-4-N,N--dimethylaminoethoxyphenyl-3 oxamate] here?
The inhibition in vivo at 10 mg/kg was 9%.

Which inhibition in vivo at 10 mg/kg does the source give for `O=C(O)C(=O)Nc1ccc(C=Cc2cccnn2)cc1` [Example 19, 2-(3-Pyridazinyl)ethenylphenyl-4 oxamic acid ethanolamine salt] here?
Its inhibition in vivo at 10 mg/kg is 0%.

Which inhibition in vivo at 10 mg/kg does the source give for `O=C(O)C(=O)Nc1cccc(C=Cc2ccnc(NC(=O)C(=O)O)n2)c1` [Example 29, 2-(2-Carboxycarbonylamino-pyrimidin-4-yl)ethenyl-phenyl-3 oxamic acid tetra-sodium salt di-hydrate] here?
Its inhibition in vivo at 10 mg/kg is 67%.

With `CCOC(=O)C(=O)Nc1cccc(C=Cc2ccnc(NC(=O)C(=O)OCC)n2)c1` [Example 28, Ethyl 2-(2-ethoxyoxalylamino-pyrimidin-4-yl)ethenyl-phenyl-3 oxamate] as the compound, how does the inhibition in vivo at 10 mg/kg read?
Its inhibition in vivo at 10 mg/kg is 5%.

For `Cc1nc(C=Cc2cccc(NC(=O)C(=O)O)c2)cc(NC(=O)C(=O)O)n1` [Example 27, 2-(2-Methyl-6-carboxycarbonyl-aminopyrimidin-4-yl)-ethenylphenyl-3 oxamic acid di-tromethane salt], which inhibition in vivo at 10 mg/kg is on record?
The inhibition in vivo at 10 mg/kg was 0%.

With `CCc1nccnc1C=Cc1ccc(NC(=O)C(=O)O)cc1` [Example 31, 2-(3-Ethylpyrazin-2-yl)ethenyl-phenyl-4 oxamic acid ethanolamine salt] as the compound, how does the inhibition in vivo at 10 mg/kg read?
Its inhibition in vivo at 10 mg/kg is 15%.

Which inhibition in vivo at 10 mg/kg does the source give for `CC(=O)Nc1nccc(C=Cc2cccc(NC(=O)C(=O)O)c2)n1` [Example 17, 2-(2-Acetamidopyrimidin-4-yl)ethenylphenyl-3 oxamic acid tromethane salt] here?
The inhibition in vivo at 10 mg/kg was 37%.

With `CCOC(=O)C(=O)Nc1cccc(C=Cc2ccnc(NC(C)=O)n2)c1` [Example 16, Ethyl 2-(2-acetamidopyrimidin-4-yl)ethenylphenyl-3 oxamate] as the compound, how does the inhibition in vivo at 10 mg/kg read?
Its inhibition in vivo at 10 mg/kg is 42%.

For `CCOCCOC(=O)C(=O)Nc1ccc(C=Cc2cnccn2)cc1` [Example 32, Ethoxyethyl 2-(2-pyrazinyl)ethenylphenyl-4 oxamate], which inhibition in vivo at 10 mg/kg is on record?
Its inhibition in vivo at 10 mg/kg is 46%.

Same assay, conditions: Rattus norvegicus, iv; ovalbumin challenge within five minutes; estimated from dose response curves; read-out: ED50 (dose reducing the size of the blued area by 50%)

For `Cc1nc(C=Cc2cccc(NC(=O)C(=O)O)c2)cc(NC(=O)C(=O)O)n1` [Example 27, 2-(2-Methyl-6-carboxycarbonyl-aminopyrimidin-4-yl)-ethenylphenyl-3 oxamic acid di-tromethane salt], which ED50 is on record?
The ED50 was 0.03 mg/kg.

With `O=C(O)C(=O)Nc1ccc(C=Cc2ccncn2)c(NC(=O)C(=O)O)c1` [Example 36, 2-(4-Pyrimidinyl)ethenylphenyl-2,4 dioxamic acid di-ethanolamine salt] as the compound, how does the ED50 read?
Its ED50 is 0.05 mg/kg.

For `O=C(O)C(=O)Nc1ccc(C=Cc2cnccn2)c(NC(=O)C(=O)O)c1` [Example 35, 2-(2-Pyrazinyl)ethenylphenyl-2,4 dioxamic acid di-ethanolamine salt], which ED50 is on record?
The ED50 was 0.53 mg/kg.

Same assay, conditions: Rattus norvegicus, po; 30 minutes before ovalbumin challenge; estimated from dose response curves; read-out: ED50 (dose reducing the size of the blued area by 50%)

Which ED50 does the source give for `CCOC(=O)C(=O)Nc1cccc(C=Cc2cc(NC(=O)C(=O)OCC)nc(C)n2)c1` [Example 26, Ethyl 2-(2-methyl-6-ethoxyoxalyl-aminopyrimidin-4-yl)-ethenylphenyl-3 oxamate hemihydrate] here?
Its ED50 is < 10 mg/kg.

For `CCOC(=O)C(=O)Nc1ccc(C=Cc2cc(NC(=O)C(=O)OCC)nc(C)n2)cc1` [Example 24, Ethyl 2-(2-methyl-6-ethoxyoxalylaminopyrimidin-4-yl)-ethenylphenyl-4 oxamate], which ED50 is on record?
The ED50 was 0.3 mg/kg.

For `CCOC(=O)C(=O)Nc1ccc(C=Cc2cccnn2)cc1` [Example 18, Ethyl 2-(3-pyridazinyl)ethenylphenyl-4 oxamate], which ED50 is on record?
Its ED50 is 1 mg/kg.

Which ED50 does the source give for `CCOC(=O)C(=O)Nc1ccc(C=Cc2ccncn2)c(O)c1` [Example 8, Ethyl 2-(4-pyrimidinyl)ethenyl-2-hydroxyphenyl-4 oxamate] here?
The ED50 was 4.5 mg/kg.

With `CCOC(=O)C(=O)Nc1ccc(C=Cc2cc(OCC)nc(OCC)n2)cc1` [Example 13, Ethyl 2-(2,6-diethoxypyrimidin-4-yl)ethenylphenyl-4 oxamate] as the compound, how does the ED50 read?
The ED50 was 30 mg/kg.

Which ED50 does the source give for `CCOC(=O)C(=O)Nc1cccc(C=Cc2ccncn2)c1` [Example 4, Ethyl 2-(4-pyrimidinyl)ethenylphenyl-3 oxamate] here?
Its ED50 is 2.8 mg/kg.

With `O=C(O)C(=O)Nc1cccc(C=Cc2cnccn2)c1` [Example 23, 2-(2-Pyrazinyl)ethenylphenyl-3 oxamic acid ethanolamine salt] as the compound, how does the ED50 read?
The ED50 was < 1 mg/kg.

With `Cc1nc(C=Cc2ccc(NC(=O)C(=O)O)cc2)cc(NC(=O)C(=O)O)n1` [Example 25, 2-(2-Methyl-6-carboxycarbonylaminopyrimidin-4-yl)-ethenylphenyl-4 oxamic acid hydrate diethanolamine salt] as the compound, how does the ED50 read?
Its ED50 is 4 mg/kg.

Which ED50 does the source give for `CCOC(=O)C(=O)Nc1ccc(C=Cc2ccncn2)c(NC(=O)C(=O)OCC)c1` [Example 12, Diethyl 2-(4-pyrimidinyl)ethenylphenyl-2,4-dioxamate] here?
The ED50 was 2 mg/kg.

For `CCOC(=O)C(=O)Nc1ccc(C=Cc2ccncn2)cc1` [Example 1, Ethyl 2-(4-pyrimidinyl)ethenylphenyl-4 oxamate], which ED50 is on record?
Its ED50 is 1.4 mg/kg.

Which ED50 does the source give for `CCOC(=O)C(=O)Nc1cccc(C=Cc2cnccn2)c1` [Example 22, Ethyl 2-(2-pyrazinyl)ethenylphenyl-3 oxamate] here?
Its ED50 is 4 mg/kg.

For `CCOC(=O)C(=O)Nc1ccc(C=Cc2cc(C)ncn2)cc1` [Example 15, Ethyl 2-(6-methylpyrimidin-4-yl)ethenylphenyl-4 oxamate], which ED50 is on record?
Its ED50 is 1.1 mg/kg.

For `O=C(O)C(=O)Nc1ccccc1C=Cc1ccncn1` [Example 7, 2-(4-Pyrimidinyl)ethenylphenyl-2 oxamic acid ethanolamine salt], which ED50 is on record?
Its ED50 is 8 mg/kg.

With `CCOC(=O)C(=O)Nc1ccc(C=Cc2ccnc(NC(=O)C(=O)OCC)n2)cc1` [Example 3, Ethyl 2-(2-ethoxyoxalylaminopyrimidin-4-yl)-ethenylphenyl-4 oxamate] as the compound, how does the ED50 read?
The ED50 was 10 mg/kg.

Which ED50 does the source give for `O=C(O)C(=O)Nc1ccc(C=Cc2cnccn2)cc1` [Example 21, 2-(2-Pyrazinyl)ethenylphenyl-4 oxamic acid sodium salt] here?
The ED50 was 10 mg/kg.

With `CCOC(=O)C(=O)Nc1ccc(C=Cc2cnccn2)cc1` [Example 20, Ethyl 2-(2-pyrazinyl)ethenylphenyl-4 oxamate] as the compound, how does the ED50 read?
The ED50 was 4.6 mg/kg.

Which ED50 does the source give for `CCOC(=O)C(=O)Nc1ccc(C=Cc2cc(N)nc(C)n2)cc1` [Example 14, Ethyl 2-(2-methyl-6-aminopyrimidin-4-yl)ethenyl phenyl-4 oxamate] here?
Its ED50 is 10 mg/kg.

With `O=C(O)C(=O)Nc1cccc(C=Cc2ccncn2)c1` [Example 5, 2-(4-Pyrimidinyl)ethenylphenyl-3 oxamic acid ethanolamine salt] as the compound, how does the ED50 read?
Its ED50 is 12.3 mg/kg.

Same assay, conditions: p.o.; 30 minutes before ovalbumin challenge; estimated from dose response curves

Which “ED50 (dose reducing the size of the blued area by 50%)” value does the source give for `O=C(O)c1cc(=O)c2c(OCC(O)COc3cccc4oc(C(=O)O)cc(=O)c34)cccc2o1` [Cromoglycate] here?
Its value is “Inactive”.

With “Ethyl 2-(4-pyrimidinyl)ethenyl-6-chlorophenyl-3 oxamate [Example 9]” as the compound, how does the “ED50 (dose reducing the size of the blued area by 50%)” value read?
Its value is 2 mg/kg, p.o.
